Bridges are numbered along the chain shown (N, C = ends). Where no end group is shown, it is not given here.

Test [1] addresses rabbit antibodies that recognize specifically the carboxyl terminal tryptophan of ET-1. In kind it is binding. As to conditions: mean ± SEM, n = 3 - 5; 4° C overnight.
Description: Diluted samples (200 µL) obtained from the above enzyme assay are incubated at 4° C overnight with 25 µL each of [^125I]ET-1 (10,000 cpm/tube) and 1:20,000-fold diluted rabbit antibodies that recognize specifically the carboxyl terminal tryptophan of ET-1. Goat anti-rabbit antibodies coupled to magnetic beads (70 µg) are then added to each tube, and the reaction mixture is further incubated for 30 min at room temperature. The beads are pelleted using a magnetic rack. The supernatant is decanted, and the radioactivity in the pellet is counted in a gamma counter. Total and nonspecific binding are measured in the absence of nonradioactive ET-1 and anti-ET antibodies, respectively.
Test [2] addresses T1, recombinant human endothelin converting enzyme-1 (rhECE-1) (Homo sapiens, UniProt P42892).
T1 construct: made in house; host or cells: Chinese hamster ovary (CHO) cells; 100,000 x g membrane pellet of the homogenate
T1 sequence (P42892 1-770): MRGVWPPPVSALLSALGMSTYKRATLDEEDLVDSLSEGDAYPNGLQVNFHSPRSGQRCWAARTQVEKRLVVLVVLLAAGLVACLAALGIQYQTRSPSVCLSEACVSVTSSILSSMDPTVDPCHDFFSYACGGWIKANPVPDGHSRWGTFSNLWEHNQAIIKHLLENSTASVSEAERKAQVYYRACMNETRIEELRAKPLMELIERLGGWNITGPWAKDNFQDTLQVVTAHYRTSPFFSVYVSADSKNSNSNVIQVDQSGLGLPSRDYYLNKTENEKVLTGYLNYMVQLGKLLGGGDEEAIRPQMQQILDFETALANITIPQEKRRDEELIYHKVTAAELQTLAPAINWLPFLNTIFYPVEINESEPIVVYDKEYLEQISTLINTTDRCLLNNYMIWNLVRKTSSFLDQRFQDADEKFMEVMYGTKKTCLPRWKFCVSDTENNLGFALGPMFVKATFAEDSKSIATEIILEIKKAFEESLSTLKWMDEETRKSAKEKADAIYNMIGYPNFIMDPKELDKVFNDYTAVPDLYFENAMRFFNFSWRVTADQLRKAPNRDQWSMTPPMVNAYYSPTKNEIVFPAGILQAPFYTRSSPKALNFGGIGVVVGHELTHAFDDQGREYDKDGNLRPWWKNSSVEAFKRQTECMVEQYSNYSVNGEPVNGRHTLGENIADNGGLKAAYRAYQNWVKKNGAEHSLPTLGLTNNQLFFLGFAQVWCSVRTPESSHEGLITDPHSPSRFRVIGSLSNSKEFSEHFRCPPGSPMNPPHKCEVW
Description: in vitro assay for rh-ECE-1 inhibition (radioimmunoassay of ET-1 formed from big ET-1). Type of test: biochemical. The following applies: membrane preparation from CHO cells, human big ET-1 0.2 µM, 2 h at 37 °C.
Description: Cells are harvested by scraping, pelleted by centrifugation, and homogenized at 4 °C in a buffer containing 5 mM MgCl2., 1 µM pepstatin A, 100 µM leupeptin, 1 mM PMSF, and 20 mM Tris, pH 7.0, with a ratio of 2 mL of buffer/mL of cells. The cell debris is removed by brief centrifugation, and the supernatant is centrifuged again at 100,000 x g for 30 minutes. The resulting pellet is resuspended in a buffer containing 200 mM NaCl and 50 mM Tes, pH 7.0, at a protein concentration about 15 mg/mL and stored in aliquots at -80°C.
To assess the effect of an inhibitor on ECE-1 activity, 10 µg of protein is preincubated with the compound at a desired concentration for 20 min at room temperature in 50 mM TES, pH 7.0, and 0.005% Triton X-100 in a volume of 10 µL. […]
Diluted samples (200 µL) obtained from the above enzyme assay are incubated at 4° C overnight with 25 µL each of [^125I]ET-1 (10,000 cpm/tube) and 1:20,000-fold diluted rabbit antibodies that recognize specifically the carboxyl terminal tryptophan of ET-1. […] The supernatant is decanted, and the radioactivity in the pellet is counted in a gamma counter. Total and nonspecific binding are measured in the absence of nonradioactive ET-1 and anti-ET antibodies, respectively.
In order to determine the IC50 value of an inhibitor, a concentration-response curve of each inhibitor is determined. […]

With “big ET-1: Human big ET-1, substrate of the ECE-1 assay (CSCSSLMDKECVYFCHLDIIWVNTPEHVVPYGLGSPRS; disulfide 1-15, 3-11; ends not checked; UniProt P05305 53-90, looked up)”, the “IC50 values (displace [125I]ET-1 binding to the antibodies)” value in test [1] is listed as 260,000 ± 66,000 fmol.

Regarding `CC(C)C[C@H](S)C(=O)NC1(C(=O)N[C@@H](Cc2ccc(-c3cccs3)nc2)C(=O)O)CCCC1` [Example 2(s), 2-{[1-(2-Mercapto-4-methyl-pentanoylamino)-cyclopentanecarbonyl]-amino}-3-[6-(thien-2-yl)-pyridin-3-yl]-propionic acid], the IC50 in test [2] was roughly 4 nM.

A word on the IC50: it is the concentration needed to halve the response being measured.

The record behind these values is patent EP1080104B1, “CERTAIN HETEROARYL SUBSTITUTED THIOL INHIBITORS OF ENDOTHELIN-CONVERTING ENZYME” (Novartis AG, priority 1998, dated 2005).
